Experimental data: US6753182B1, “Cryopreservation of plant cells” (Phyton, Inc., priority 1995, dated 2004)
Read-outs that look alike come from different tables or passages of the source.

Key:
[1] = test system: Taxus species cell line 647; assay: Cell viability and growth before and after cryopreservation, line 647; assay type: cell-based; conditions: 3% mannitol 3 days, before freezing
Experimental: (§1) Six to seven day old cell suspensions of each cell line were harvested and the biomass resuspended in fresh growth medium containing 3% mannitol. Cells were incubated for 3 days at room temperature and thereafter the loaded cells suspensions were incubated at 4° C. for from 3 hours. Cold acclimated cells were transferred to 4 ml cryovials containing a cold vitrification solution of ethylene glycol/sorbitol 40/30 wt %. The vitrification solution and cells were gently mixed and the vials were incubated at […] for 3 minutes. Thereafter, the cell suspensions were frozen by liquid nitrogen immersion for at least 10 minutes.
(§2) After freezing, the cells were thawed by transferring the frozen vials from liquid nitrogen to a 40° C. water bath for 1-2 minutes. Post-thaw cell viability was determined by FDA staining assay. Cells were washed 5-6 times with cold sterile 1M sorbitol media and resuspended in fresh 1 M in medium.
(§3) The cell suspensions free from toxic cryoprotectants were then each separately filtered using a buchner funnel and Whatmann 541 filter paper under sterile conditions. For each cell suspension, the filter with cells was layered on semisolid growth medium containing 0.5M sorbitol and equilibrated for 30 minutes at room temperature. Paper containing cells was transferred to solid growth medium containing 0.1M sorbitol and incubated for 24 hours. […]

[2] = test system: Taxus species cell line KS1A; assay: Cell viability and growth before and after cryopreservation, line KS1A; assay type: cell-based; conditions: 3% mannitol 3 days, before freezing
Experimental: as §1, §2, §3

Taxus cells [3] = assay: Viability of Taxus cells at end of preculture period (before freezing); assay type: cell-based, Taxus species; conditions: end of preculture period with the osmotic agent, not frozen
[4] = test system: Taxus species cell line 1220; assay: Cell viability and growth before and after cryopreservation, line 1220; assay type: cell-based; conditions: 3% mannitol 3 days, before freezing
Experimental: as §1, §2, §3

[5] = test system: Taxus species cell line 12-6; assay: Cell viability and growth before and after cryopreservation, line 12-6; assay type: cell-based; conditions: 3% mannitol 3 days, before freezing
Experimental: as §1, §2, §3

[6] = test system: Taxus species cell line KS1A; assay: Post-thaw viability of cryopreserved Taxus cell line KS1A (FDA staining); assay type: cell-based
Experimental: (§4) Cells of Taxus suspension cultures (KS1A) were harvested and precultured with various osmotic agents in the medium. Osmotic agents tested include trehalose, proline, sorbitol (0.15 M-0.8 M), sucrose (2-20%) and mannitol (0.16 M). Viability was evaluated for each cell suspension at the end of the preculture period and immediately after thawing. Regrowth was evaluated after post-thaw osmotic adjustment. The vitrification solutions used were ethylene glycol/sorbitol/pectin and ethylene glycol/sorbitol at 40/30 weight percent in culture medium.
Six to seven day cell suspensions of Taxus species cell line KS1A were pretreated with 3% mannitol for three days at room temperature. Loaded cells were acclimated to the cold by incubating the flasks at 4° C. for 3 hours. Cold acclimated cells were transferred to 4 ml cryovials and cold vitrification solution was added to each and mixed. After vitrification at 4° C. for three minutes, cells were frozen liquid nitrogen immersion. Vials were maintained in liquid nitrogen for at least 10 minutes.
Cryopreserved cells were thawed by transferring vials from liquid nitrogen and agitated in a 40° C. water bath for 1-2 minutes. Post-thaw viability was determined by FDA staining assay.

Taxus cells [7] = assay: Regrowth of Taxus cells after thawing and osmotic adjustment; assay type: cell-based, Taxus species; conditions: after thawing
Taxus cells [8] = assay: Post-thaw viability of cryopreserved Taxus cells (FDA / trypan blue staining); conditions: for Survival: 3% mannitol, vitrified 40/30 ethylene glycol/sorbitol, post-thaw
Experimental: Culturing cells at high density maximizes the productivity of the cell culture process. […] Cell viability was determined by staining with a 0.05% fluorescein diacetate (FDA) in acetone (J. M. Widholm, Stain Technol 47:189-94, 1972) followed by counting the number of green fluorescein cells upon excitation with blue light in a fluorescence microscope.
After 3 days of incubation in growth medium with mannitol, cells were cold acclimated at 4° C. for 3 hours. Acclimated cells were harvested and transferred to 4 ml cryovials containing a cold vitrifying solution of 40/30 wt % ethylene glycol/sorbitol in media. The vials were incubated at 4° C. for 3 minutes and frozen by immersion into liquid nitrogen. Vials were maintained in liquid nitrogen for at least 10 minutes before use in the thawing experiments.
Vials of frozen cells were removed from liquid nitrogen storage and agitated at 40° C. until the contents are liquefied (1-2 minutes). The liquefied cells were then washed 5 to 6 times with sterile media containing 1 M sorbitol, 3 times with media containing 0.5 M sorbitol media, 3 times with 0.1 M sorbitol media, and 3 times with sorbitol free media. Washing was performed by resuspension of cells in wash media, centrifugation at 50×g for 2 minutes and aspiration of wash media from the cell pellet. Cell viability was determined immediately after thawing.
Various osmotic agents in growth medium were evaluated to determine their effects on the survival of Taxus species cells precultured with the agents, after the preculture period and after thawing of the cryoprotected and frozen Taxus cell suspensions. Cells of three-day cell culture suspensions were precultured in growth medium containing various osmotic agents prior to cryoprotection. Cryoprotected cells were frozen and stored in liquid nitrogen for a minimum of one hour. Viability tests were performed at the end of the preculture period (control) and immediately after thawing of the cryoprotected and frozen cell.
Taxus cells were harvested from cell culture and the biomass resuspended in growth medium containing mannitol at a concentration of 3% for one day or three-days at room temperature. Loaded cells were incubated at 4° C. for 3 hours and transferred to 4 ml cryovials containing cold vitrifying solution comprising 40/30 weight percent ethylene glycol/sorbitol in culture medium. The vials were incubated at 4° C. for three minutes and frozen by liquid nitrogen immersion. Cells contained in the vials were maintained in liquid nitrogen for at least 10 minutes.
Cryopreserved cells were thawed and their viability was determined by FDA and tryptan blue staining procedures.
Cultured Tarus cells were harvested and resuspended in fresh growth medium containing 3% mannitol for 3 days. Cells were cold acclimated for 3 hours and transferred to cryovials containing vitrification solution. Cell suspensions were frozen by liquid nitrogen immersion. Liquid nitrogen frozen cells were thawed by agitating the cryovials in a 40° C. water bath for 1-2 minutes.

[9] = test system: Taxus species cell line 12-14; assay: Cell viability and growth before and after cryopreservation, line 12-14; assay type: cell-based; conditions: 3% mannitol 3 days, before freezing
Experimental: as §1, §2, §3

[10] = test system: Taxus suspension cultures (KS1A); assay: Viability of Taxus KS1A cells at end of preculture period; assay type: cell-based, Taxus species
Experimental: as §4

[11] = test system: Taxus species cell line 1224; assay: Cell viability and growth before and after cryopreservation, line 1224; assay type: cell-based; conditions: 3% mannitol 3 days, before freezing
Experimental: as §1, §2, §3

[12] = test system: Taxus species cell line KEIR; assay: Cell viability and growth before and after cryopreservation, line KEIR; assay type: cell-based; conditions: 3% mannitol 3 days, before freezing
Experimental: as §1, §2, §3

Taxus cells [13] = assay: Regrowth of Taxus cells after thawing and osmotic adjustment; assay type: cell-based, Taxus species; conditions: after thawing; remark: listed apart in the source
Experimental: Cell viability was determined immediately after thawing. The summary of multiple experiments is listed below.
Six to seven day old cell suspensions in growth medium were harvested and the cell biomass resuspended in fresh growth medium containing 0.06 M, 0.12 M, 0.15 M, 0.29 M and 0.58 M sucrose. Cells were cryopreserved, frozen, thawed and osmotically adjusted accordingly. Cell viability was determined immediately after thawing.

[14] = test system: microtubles of mammalian cells; conditions: cited from earlier work
[15] = test system: refractory ovarian, breast and other cancers; conditions: clinical trials; cited from earlier work
[16] = cryoprotectants ethylene glycol/sorbitol 40/30 weight percent, immediately after thawing, sorbitol 0.15 M-0.8 M, sucrose 2%-20%, mannitol 0.16 M
[17] = end of preculture with osmotic agent (sorbitol 0.15 M-0.8 M, sucrose 2%-20%, mannitol 0.16 M)
[18] = cryoprotectant in vitrification solution: DMSO 5%-30%, propylene glycol 15%, glycerol 20%-30%, PEG-8000 10%, ethylene glycol 20%-50%, 3% mannitol 3 days, after −196° C. storage

OC[C@@H](O)[C@@H](O)[C@H](O)[C@H](O)CO [Mannitol, mannitol]
Viability (preculture) [1]: ≧95% | Viability (preculture) [2]: ≧95% | Survival (Viability) Control (Taxus cells [3]): 50-95% | Viability (preculture) [4]: ≧95% | Viability (preculture) [5]: ≧95% | Recovery Viability [6, 16]: 40-80% | Recovery Viability ([6]; cryoprotectants ethylene glycol/sorbitol 40/30 weight percent, immediately after thawing, sorbitol 0.15 M-0.8 M, sucrose 2%-20%, mannitol 0.16 M, listed as mannitol): highest percent viability | Regrowth (Taxus cells [7]; 0.16 M mannitol preculture 3 days): vigorous | Regrowth (Taxus cells [7]; 0.22 M mannitol preculture 3 days): slight | Regrowth (Taxus cells [7]; 0.33 M mannitol preculture 3 days): slight | Regrowth (Taxus cells [7]; 0.44 M mannitol preculture 3 days): slight | Survival (Viability) Frozen (Taxus cells [8]): highest percent viability | Survival (Taxus cells [8]; 1 day of preculture): 50% | Survival (Taxus cells [8]; 3 days of preculture): 40-80% | Survival (Taxus cells [8]; 3 days of preculture, listed as mannitol): significantly higher | Survival (Viability) Frozen (Taxus cells [8]; Taxus species): 40-80% | Viability (Taxus cells [8]; Taxus species, 3 days, 0.16 M): 60% | Viability (Taxus cells [8]; Taxus species, 3 days, 0.22 M): 30% | Viability (Taxus cells [8]; Taxus species, 3 days, 0.33 M): 30% | Viability (Taxus cells [8]; Taxus species, 3 days, 0.44 M): 20% | Viability (preculture) [9]: ≧95% | Viability [10, 17]: 75-95% | Viability (preculture) [11]: ≧95% | Viability (preculture) [12]: ≧95%

OC[C@H]1O[C@@](CO)(O[C@H]2O[C@H](CO)[C@@H](O)[C@H](O)[C@H]2O)[C@@H](O)[C@@H]1O [Sucrose, sucrose]
Survival (Viability) Control (Taxus cells [3]): 50-95% | Recovery Viability ([6]; Taxus species): <10-40% | Survival (Viability) Frozen (Taxus cells [8]; Taxus species): 20-50% | Regrowth (Taxus cells [13]; 0.06 M sucrose pretreatment): slight | Regrowth (Taxus cells [13]; 0.12 M sucrose pretreatment): slight | Regrowth (Taxus cells [13]; 0.15 M sucrose pretreatment): slight | Regrowth (Taxus cells [13]; 0.29 M sucrose pretreatment): slight | Regrowth (Taxus cells [13]; 0.58 M sucrose pretreatment): slight | Viability ([10]; Taxus species): 50-95%

OC[C@H]1O[C@H](O[C@H]2O[C@H](CO)[C@@H](O)[C@H](O)[C@H]2O)[C@H](O)[C@@H](O)[C@@H]1O [Trehalose, trehalose]
Survival (Viability) Control (Taxus cells [3]): 50-95% | Survival (Viability) Frozen (Taxus cells [8]; Taxus species): <15%

OCC(O)CO [Glycerol, glycerol]
Viability (Taxus cells [8]; [18]): 0%

CC(=O)O[C@H]1C(=O)[C@@]2(C)[C@H]([C@H](OC(=O)c3ccccc3)[C@]3(O)C[C@H](OC(=O)[C@H](O)[C@@H](NC(=O)c4ccccc4)c4ccccc4)C(C)=C1C3(C)C)[C@]1(OC(C)=O)CO[C@@H]1C[C@@H]2O [taxol]
inhibition of the polymerization of microtubles [14]: effectively inhibits | clinical efficacy [15]: extremely effective

OC[C@@H](O)[C@@H](O)[C@H](O)[C@@H](O)CO [Sorbitol, sorbitol]
Survival (Viability) Control (Taxus cells [3]): 50-95% | Recovery Viability [6, 16]: 30-70% | Regrowth (Taxus cells [7]; 0.15 M sorbitol pretreatment): none | Regrowth (Taxus cells [7]; 0.22 M sorbitol pretreatment): vigorous | Regrowth (Taxus cells [7]; 0.33 M sorbitol pretreatment): vigorous | Regrowth (Taxus cells [7]; 0.44 M sorbitol pretreatment): vigorous | Regrowth (Taxus cells [7]; 0.80 M sorbitol pretreatment): slight | Survival (Viability) Frozen (Taxus cells [8]; Taxus species): 30-70% | Viability [10, 17]: 50-95%

OCCO [Ethylene Glycol, ethylene glycol]
Viability (Taxus cells [8]; [18]): 25%-80% | Viability (Taxus cells [8]; cryoprotectant in vitrification solution: DMSO 5%-30%, propylene glycol 15%, glycerol 20%-30%, PEG-8000 10%, ethylene glycol 20%-50%, 3% mannitol 3 days, after −196° C. storage, listed as ethylene glycol): highest viability

CC(O)CO (centres unmarked) [Propylene Glycol, propylene glycol]
Viability (Taxus cells [8]; [18]): 0%

O=C(O)[C@@H]1CCCN1 [Proline, proline]
Survival (Viability) Control (Taxus cells [3]): <50% | Recovery Viability ([6]; Taxus species): <15% | Survival (Viability) Frozen (Taxus cells [8]; Taxus species): <15% | Viability ([10]; Taxus species): 50-95%

C[S+](C)[O-] [DMSO, dimethylsulfoxide]
Viability (Taxus cells [8]; [18]): ≦15%

PEG-8000
Viability (Taxus cells [8]): 0%
